Results published in PMC10065276, “Enhanced therapeutic window for antimicrobial Pept-ins by investigating their structure-activity relationship” (PLOS ONE, 2023).
Values after ≈ are worked out from the molar mass of the structure shown. Values joined by “and” are separate entries in the source; they are usually repeats but may differ in a detail not shown here. Equal values may be shown once. Read-outs that look alike come from different tables or passages of the source. Positions of bridges follow the written chain, without caps; N, C: chain ends. Residues, ends and D or L forms follow the SMILES beside them.

Key:
[1] = test system: E. coli BL21; details: BL21, 17 h
In short: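 EUCAST broth microdilution in Mueller-Hinton medium; end-exponential culture diluted to 0.005 McF (~1.5x10^6 CFU/mL) before 1:1 mixing with two-fold peptide dilutions (0.75 to 100 μg/mL), triplicates.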

[2] = test system: E. coli XL1-Red (ancestor strain); assay type: cell-based; details: XL1-Red (ancestor strain, 17 h)
Method: In a previous study, we generated a P2-resistant strain by subculturing the hypermutable E. coli XL1-Red, which has a 5 000-fold higher mutation rate than wildtype bacteria, at the sub-MIC concentration of P2 for 27 days. […] The MIC of a few categories of P2 variants were determined to investigate whether P2 antimicrobial activity can be restored against P2-resistant bacteria via structure modification. […] The amount of intracellularly accumulated P2_VFV in P2-resistant strains was much higher than P2 (Fig 5A), which was sufficient to induce cell death (FAM^+Draq7^+ cells) (Fig 5B). […] (Fig 5C).
The peptide MIC was determined via the broth microdilution assay according to the EUCAST guideline, using 96-well polystyrene flat-bottom microtiter plates (BD Biosciences). Briefly, a single colony was inoculated in 5 mL Mueller-Hinton (MH) medium and incubated, while shaking at 37°C, to the end-exponential growth phase. The bacterial culture was subsequently diluted to 0.005 McFarland (McF) (~1.5x10^6 CFU/mL) with fresh MH medium. Two-fold serial peptide-dilutions were prepared in 50 μL MH medium resulting in a concentration range of 0.75 to 100 μg/mL (at least three wells for each concentration). […] The MIC was determined as the lowest peptide concentration without visible bacterial growth.

[3] = test system: E. coli ATCC clinical isolates; assay: microbe, parasite or virus in culture; assay type: cell-based
Excerpt: To address the emerging antibiotic resistance issue, it is not only required to develop active antibiotics against wildtype bacteria, but also against the clinically isolated multidrug-resistant strains. Therefore, we determined whether P2 variants with a 4-fold lower MICs (P2_A5F, V7Y (P2), P2_H12_GV, P2_H12_PEG) (S12 Table) will also show improved antimicrobial activity against these multidrug-resistant strains. Since a high net positive charge could carry inherent developability challenges, we further explored the therapeutic potential of P2 variants with reduced net charge (P2_4R_GV and P2_4R_L) (S12 Table) by determining their antimicrobial activity against these clinically isolated multidrug-resistant strains. The mode of action of these derivatives remains to be inducing protein aggregation in bacteria as shown by the formation of IBs stained by pFTAA after Pept-in treatment (P2, P2-4R-GV, P2_A5F, V7Y (P2), P2_H12_GV, P2_H12_PEG) (S6A Fig) and the presence of a large number of proteins with different molecular weights in purified IBs as shown by the Coomassie staining (S6B Fig), in contrast to the absence of pFTAA staining (S6A Fig) and the presence of only two faint protein bands (S6B Fig) for buffer and control peptide treated bacteria. For clinically isolated multidrug-resistant strains, in addition to the 34 clinical isolates of E. coli ATCC, we added 12 Acinetobacter baumannii (A. baumannii) isolates and 12 Klebsiella pneumoniae (K. pneumoniae) isolates to broaden the selection of the bacterial spectrum.
The peptide MIC was determined via the broth microdilution assay according to the EUCAST guideline, using 96-well polystyrene flat-bottom microtiter plates (BD Biosciences). Briefly, a single colony was inoculated in 5 mL Mueller-Hinton (MH) medium and incubated, while shaking at 37°C, to the end-exponential growth phase. The bacterial culture was subsequently diluted to 0.005 McFarland (McF) (~1.5x10^6 CFU/mL) with fresh MH medium. […] The MIC was determined as the lowest peptide concentration without visible bacterial growth.

[4] = test system: K. pneumoniae clinical isolates; assay type: cell-based, Klebsiella pneumoniae; details: 17 h
Excerpt: To address the emerging antibiotic resistance issue, it is not only required to develop active antibiotics against wildtype bacteria, but also against the clinically isolated multidrug-resistant strains. Therefore, we determined whether P2 variants with a 4-fold lower MICs (P2_A5F, V7Y (P2), P2_H12_GV, P2_H12_PEG) (S12 Table) will also show improved antimicrobial activity against these multidrug-resistant strains. Since a high net positive charge could carry inherent developability challenges, we further explored the therapeutic potential of P2 variants with reduced net charge (P2_4R_GV and P2_4R_L) (S12 Table) by determining their antimicrobial activity against these clinically isolated multidrug-resistant strains. […]
The peptide MIC was determined via the broth microdilution assay according to the EUCAST guideline, using 96-well polystyrene flat-bottom microtiter plates (BD Biosciences). […] The MIC was determined as the lowest peptide concentration without visible bacterial growth.

Compound | BL21 MIC, SS bond [1] [mg/L] | BL21 MIC, no SS bond [1] [mg/L] | MIC, Ancestor [2] [mg/L] | BL21 MIC [1] [mg/L] | MIC ([3]; Escherichia coli, S12 Table, each table row is one E. coli clinical isolate (34 isolates), highest concentration tested 32 μg/mL, read-out: MIC) [mg/L] | MIC ([3]; S12 Table, each table row is one E. coli clinical isolate (34 isolates), highest concentration tested 32 μg/mL) | MIC ([3]; ATCC clinical isolates, 17 h) [mg/L] | MIC [4] [mg/L]
CC(C)C[C@@H]1NC(=O)CNC(=O)[C@H](CCCNC(=N)N)NC(=O)[C@H](C(C)C)NC(=O)[C@H](CCCNC(=N)N)NC(=O)[C@H](CCCNC(=N)N)NC(=O)[C@H](C(C)C)NC(=O)[C@H](CC(C)C)NC(=O)[C@H](C)NC(=O)[C@H](CC(C)C)NC(=O)CNC(=O)[C@H](CC(C)C)NC(=O)[C@@H](NC(=O)[C@@H](N)CCCNC(=N)N)CSSC[C@@H](C(=O)O)NC(=O)[C@H](CO)NC(=O)CNC(=O)[C@H](CCCNC(=N)N)NC(=O)[C@H](CCCNC(=N)N)NC(=O)[C@H](CC(C)C)NC(=O)[C@H](C)NC(=O)[C@H](CC(C)C)NC(=O)CNC1=O [Peptide P2_H6] (H-RCLGLALVRRVRGLGLALRRGSC-OH; disulfide 2-23) | 6.25 | 12.5 | 3.13 (≈ 1.25 µM) | – | – | – | – | –
CC(C)C[C@H](NC(=O)CNC(=O)[C@H](CCCNC(=N)N)NC(=O)[C@@H]1CSSC[C@H](NC(=O)[C@@H](NC(=O)[C@H](CC(C)C)NC(=O)[C@H](C)NC(=O)[C@H](CC(C)C)NC(=O)CNC(=O)[C@H](CC(C)C)NC(=O)CNC(=O)[C@@H](N)CCCNC(=N)N)C(C)C)C(=O)N[C@@H](CCCNC(=N)N)C(=O)N[C@@H](CCCNC(=N)N)C(=O)NCC(=O)N[C@@H](C(C)C)C(=O)N1)C(=O)NCC(=O)N[C@@H](CC(C)C)C(=O)N[C@@H](C)C(=O)N[C@@H](CC(C)C)C(=O)N[C@H](C(=O)N[C@@H](CCCNC(=N)N)C(=O)N[C@@H](CCCNC(=N)N)C(=O)O)C(C)C [Peptide P2_H12_GV] (H-RGLGLALVCRRGVCRGLGLALVRR-OH; disulfide 9-14) | 3.13 | 6.25 | 3.13 (≈ 1.22 µM) | 3.13 | – | – | – | –
NC[C@H]1O[C@H](O[C@H]2[C@H](O)[C@@H](O[C@H]3O[C@H](CO)[C@@H](O)[C@H](N)[C@H]3O)[C@H](N)C[C@@H]2N)[C@H](N)C[C@@H]1O [Tobramycin] | – | – | – | – | 1 (≈ 2.14 µM) | 0.5 mg/L and >1 mg/L | – | –
CC(C)C[C@H](NC(=O)CNC(=O)[C@H](CCCNC(=N)N)NC(=O)[C@@H]1CCCN1C(=O)[C@H](CCCNC(=N)N)NC(=O)[C@H](CCCNC(=N)N)NC(=O)[C@H](Cc1ccc(O)cc1)NC(=O)[C@H](CC(C)C)NC(=O)[C@H](C)NC(=O)[C@H](CC(C)C)NC(=O)CNC(=O)[C@H](CC(C)C)NC(=O)CNC(=O)[C@@H](N)CCCNC(=N)N)C(=O)NCC(=O)N[C@@H](CC(C)C)C(=O)N[C@@H](C)C(=O)N[C@@H](CC(C)C)C(=O)N[C@@H](Cc1ccc(O)cc1)C(=O)N[C@@H](CCCNC(=N)N)C(=O)N[C@@H](CCCNC(=N)N)C(=O)O [V7Y (P2)] (H-RGLGLALYRRPRGLGLALYRR-OH) | – | – | – | 3.13 | – | – | 8 (≈ 3.29 µM) | 8 (≈ 3.29 µM)
